One data set has as its target T1, ROCK2 kinase (Homo sapiens, UniProt O75116).
T1 construct: purchased Invitrogen PV3759
As to the kind of experiment: In vitro evaluation of ROCK2 kinase activity (HTRF KinEASE-STK time-resolved fluorometric assay). Type of data set: biochemical. The settings on record: ROCK2 kinase 0.4 ng/μL, ATP 6.739 μM. The method, then:
ROCK2 activity screening. ROCK2 activity was detected using a 96-well (Cisbio) time-resolved fluorometric assay. The assay for ROCK2 was performed in the following assay buffer: 5 mM MgCl2 (Sigma), 1 mM DTT (Sigma) and 1× kinase buffer. The kinase buffer was used for dilution. 7.5 μL of ROCK2 kinase (Invitrogen, PV3759) was added to a 96-well microplate to reach a final concentration of 0.4 ng/μL, and then 0.25 μL of test compound (DMSO content: 1% (volume fraction)) was added. The mixture was incubated at room temperature for 0.5 h. To start the reaction, the kinase buffer was used to mix ATP (Aladdin) and the substrate STK-substrate 2-biotin. 7.5 μL of the mixed solution was added to the microplate to reach final concentrations of 6.739 μM and 1 μM. The resulting mixture was incubated at room temperature for 2 h. 5 mL of detection buffer was mixed with STK antibody-Cryptate, and then an appropriate volume of the mixture was mixed with an equal volume of streptavidin-XL665. 10 μL of the resulting mixture was added to the microplate to stop the reaction. After further incubation for about 1 h, the microplate was read on a Molecular Devices SpectraMax i3x multifunctional microplate reader. The kinase buffer, the STK-substrate 2-biotin, the detection buffer, the STK antibody-Cryptate, and the streptavidin-XL665 were all from HTRF KinEASE-STK kit (Cisbio, 1000 tests, 61GSTXLA).
For orientation: Time-resolved FRET reads energy transfer from a long-lived donor to a nearby acceptor.

Another data set addresses T2, ROCK1 kinase (Homo sapiens, UniProt Q13464).
T2 construct: purchased Invitrogen
Kind of data set: In vitro evaluation of ROCK1 kinase selectivity (HTRF KinEASE-STK time-resolved fluorometric assay). To be noted: ROCK1 kinase 0.4 ng/μL, ATP 3.53 μM. Type of data set: biochemical. As to the method:
ROCK1 activity was detected using a 96-well (Cisbio) time-resolved fluorometric assay. The assay for ROCK1 was performed in the following assay buffer: 5 mM MgCl2 (Sigma), 1 mM DTT (Sigma) and 1× kinase buffer. The kinase buffer was used for dilution. 7.5 μL of ROCK1 kinase (Invitrogen) was added to a 96-well microplate to reach a final concentration of 0.4 ng/μL, and then 0.25 μL of test compound (DMSO content: 1%) was added. The mixture was incubated at room temperature for 0.5 h. To start the reaction, the kinase buffer was also used to mix ATP (Aladdin) and the substrate STK-substrate 2-biotin. 7.5 μL of the mixed solution was added to the microplate to reach final concentrations of 3.53 μM and 1 μM. The resulting mixture was incubated at room temperature for 2 h. 5 mL of detection buffer was mixed with STK antibody-Cryptate, and then an appropriate volume of the mixture was mixed with an equal volume of streptavidin-XL665. 10 μL of the resulting mixture was added to stop the reaction. After further incubation for about 1 h, the microplate was read on a Molecular Devices SpectraMax i3x multifunctional microplate reader. The kinase buffer, the STK-substrate 2-biotin, the detection buffer, the STK antibody-Cryptate, and the streptavidin-XL665 were all from HTRF KinEASE-STK kit (Cisbio, 1000 tests, 61GSTXLA).

The nature of data set [1]: In vitro cytotoxicity assay in HepG2 cells using the CCK-8 method. Type of data set: cell-based. To be noted: human. As to the method:
In vitro cytotoxicity assay for the compounds disclosed herein was performed in HepG2 cells using the CCK-8 method. HepG2 cells (Beina Bio) in the logarithmic growth phase were collected, the concentration of cell suspension was adjusted, and then the cells were plated on a 96-well cell culture plate at 50,000 cells/well. The cells were then incubated overnight in a cell incubator (5%, 37° C.), and after 80-90% cell confluence was achieved, test compound at each concentration gradient or vehicle (DMSO) was added after medium change. The resulting mixture was incubated in the cell incubator (5%, 37° C.) for 48 h. After the treatment, the medium in the plate was discarded. The plate was washed twice with PBS, added with CCK-8 working solution (Beyotime) at 100 μL per well, and then incubated at 37° C. for 1.5 h in the dark. Absorbance at OD450 nm mil was measured for each well on a microplate reader, and CC50 value of each compound was analyzed and calculated.
(In general: Tetrazolium dyes change colour on reduction, which living cells bring about.)

A short description of data set [2]: In vitro metabolic stability, human liver microsome incubation. Type of data set: in vitro ADME. The settings on record: liver microsomes, 1 mg/mL protein, 37° C., read-out: T1/2 in human liver microsome. The method, then:
(§1) The in vitro metabolic stability of the compounds disclosed herein was determined through incubation of liver microsomes of various species. A proper amount of test compound was added into a liver microsome reaction system (1 mg/mL liver microsome protein, 25 U/mL glucose-6 phosphate dehydrogenase, 1 mM NADP, 6 mM D-glucose 6-phosphate and 5 mM MgCl2), and then the mixture was incubated in a water bath kettle at 37° C. to start reaction. At each time point, 100 μL of the reaction liquid was added into a centrifuge tube containing 400 μL of internal standard working solution (containing a 200 ng/mL solution of dexamethasone, diclofenac, tolbutamide and labetalol in acetonitrile) precooled at 0° C. so as to stop the reaction, and the mixture was then centrifuged at 10,000 g for 10 min at 4° C. The supernatant was collected for LC-MS assay so as to obtain the values of in vitro metabolic half-life of the test compounds in liver microsomes of various species.
For orientation: Microsomes from liver hold many membrane-bound enzymes, among them those of drug oxidation.

Data set [3] can be described thus: In vitro metabolic stability, guinea pig liver microsome incubation. Type of data set: in vitro ADME. The settings on record: liver microsomes, 1 mg/mL protein, 37° C., read-out: T1/2 in guinea pig liver microsome. As to the method:
as §1

Data set [4] in a line: In vitro metabolic stability, rat liver microsome incubation. Type of data set: in vitro ADME. To be noted: liver microsomes, 1 mg/mL protein, 37° C., read-out: T1/2 in rat liver microsome. The method, then: as §1

A value given as a limit tells only on which side of the number the result lay.

T2 sequence (Q13464 whole entry): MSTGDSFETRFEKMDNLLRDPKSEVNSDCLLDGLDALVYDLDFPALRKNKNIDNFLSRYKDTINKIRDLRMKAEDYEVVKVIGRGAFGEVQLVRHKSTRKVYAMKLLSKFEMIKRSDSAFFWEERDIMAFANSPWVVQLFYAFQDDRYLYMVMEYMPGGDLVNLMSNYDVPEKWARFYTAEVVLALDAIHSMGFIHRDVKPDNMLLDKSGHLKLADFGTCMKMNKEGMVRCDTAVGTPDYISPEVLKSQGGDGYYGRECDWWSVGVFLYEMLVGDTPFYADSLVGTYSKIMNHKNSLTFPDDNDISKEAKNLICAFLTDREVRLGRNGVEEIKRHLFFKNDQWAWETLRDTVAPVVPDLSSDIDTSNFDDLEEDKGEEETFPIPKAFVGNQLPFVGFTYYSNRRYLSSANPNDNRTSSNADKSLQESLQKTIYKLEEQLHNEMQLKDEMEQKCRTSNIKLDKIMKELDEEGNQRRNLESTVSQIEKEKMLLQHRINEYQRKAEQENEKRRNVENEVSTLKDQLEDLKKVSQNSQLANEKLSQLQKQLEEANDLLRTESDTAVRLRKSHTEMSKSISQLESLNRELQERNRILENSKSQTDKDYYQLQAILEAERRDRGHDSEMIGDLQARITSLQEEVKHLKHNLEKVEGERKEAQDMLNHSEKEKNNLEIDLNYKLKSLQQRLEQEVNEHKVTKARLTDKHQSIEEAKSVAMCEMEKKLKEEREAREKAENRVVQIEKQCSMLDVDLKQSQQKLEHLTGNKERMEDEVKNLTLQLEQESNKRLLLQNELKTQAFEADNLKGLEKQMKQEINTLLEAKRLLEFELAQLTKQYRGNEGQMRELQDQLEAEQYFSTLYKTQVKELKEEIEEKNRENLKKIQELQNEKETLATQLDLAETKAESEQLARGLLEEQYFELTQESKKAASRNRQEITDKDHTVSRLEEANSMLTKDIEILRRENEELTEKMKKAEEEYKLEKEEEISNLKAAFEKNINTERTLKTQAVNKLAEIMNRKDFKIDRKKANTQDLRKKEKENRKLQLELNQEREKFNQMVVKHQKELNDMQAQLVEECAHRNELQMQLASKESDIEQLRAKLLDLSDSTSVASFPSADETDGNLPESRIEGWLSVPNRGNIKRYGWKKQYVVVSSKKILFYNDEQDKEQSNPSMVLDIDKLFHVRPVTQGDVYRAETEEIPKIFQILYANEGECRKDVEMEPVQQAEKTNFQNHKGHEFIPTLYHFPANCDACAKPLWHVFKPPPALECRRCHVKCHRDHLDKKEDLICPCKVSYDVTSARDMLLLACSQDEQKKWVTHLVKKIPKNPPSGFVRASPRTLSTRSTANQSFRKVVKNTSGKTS
T1 sequence (O75116 whole entry): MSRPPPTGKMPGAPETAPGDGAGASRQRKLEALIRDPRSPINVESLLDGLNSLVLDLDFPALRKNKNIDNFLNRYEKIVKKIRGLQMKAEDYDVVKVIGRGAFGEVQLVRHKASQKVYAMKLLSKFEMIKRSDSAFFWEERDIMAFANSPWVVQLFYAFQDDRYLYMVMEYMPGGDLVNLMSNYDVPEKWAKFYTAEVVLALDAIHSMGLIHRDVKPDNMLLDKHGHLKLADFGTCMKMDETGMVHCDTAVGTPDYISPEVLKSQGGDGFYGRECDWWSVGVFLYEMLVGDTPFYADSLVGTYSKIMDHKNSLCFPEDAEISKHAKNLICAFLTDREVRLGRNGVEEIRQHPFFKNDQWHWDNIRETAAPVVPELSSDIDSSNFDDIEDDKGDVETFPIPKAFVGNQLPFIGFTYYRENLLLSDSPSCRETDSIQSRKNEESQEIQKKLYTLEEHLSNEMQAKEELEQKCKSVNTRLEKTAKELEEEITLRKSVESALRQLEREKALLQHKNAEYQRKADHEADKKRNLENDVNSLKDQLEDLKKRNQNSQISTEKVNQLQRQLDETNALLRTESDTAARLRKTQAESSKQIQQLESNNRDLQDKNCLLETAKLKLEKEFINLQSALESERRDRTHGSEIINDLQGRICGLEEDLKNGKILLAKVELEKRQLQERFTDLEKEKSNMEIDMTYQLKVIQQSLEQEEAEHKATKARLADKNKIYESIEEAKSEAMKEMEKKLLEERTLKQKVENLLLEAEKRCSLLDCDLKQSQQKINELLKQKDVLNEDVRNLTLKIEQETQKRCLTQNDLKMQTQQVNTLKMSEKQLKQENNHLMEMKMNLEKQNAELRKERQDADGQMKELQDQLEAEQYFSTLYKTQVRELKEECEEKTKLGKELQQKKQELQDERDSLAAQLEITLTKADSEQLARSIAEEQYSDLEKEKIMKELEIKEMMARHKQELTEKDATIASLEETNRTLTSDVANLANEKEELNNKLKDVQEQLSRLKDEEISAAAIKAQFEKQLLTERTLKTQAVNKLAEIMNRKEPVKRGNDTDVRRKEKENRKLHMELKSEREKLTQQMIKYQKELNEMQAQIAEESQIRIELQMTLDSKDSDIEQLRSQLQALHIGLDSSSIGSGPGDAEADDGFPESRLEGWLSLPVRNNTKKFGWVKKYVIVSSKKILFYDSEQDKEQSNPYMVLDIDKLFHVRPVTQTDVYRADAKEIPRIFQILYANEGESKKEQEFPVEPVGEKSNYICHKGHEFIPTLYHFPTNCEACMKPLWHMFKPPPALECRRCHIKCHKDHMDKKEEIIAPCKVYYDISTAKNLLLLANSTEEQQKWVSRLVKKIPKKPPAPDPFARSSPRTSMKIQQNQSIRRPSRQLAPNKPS

Turning to `Cn1c(C(=O)N2CC(F)(F)C2)cc2c1CN(c1nc3c(c(Nc4ccc(-c5cn[nH]c5)cc4)n1)COCC3)CC2` [Compound L031], the IC50 (usually the midpoint of a concentration-inhibition curve) against ROCK2 kinase was ≤ 0.05 µM; against ROCK1 kinase it was > 4.5 µM. Further, in data set [1], it took 33.4 µM to reach half-maximal cytotoxicity (CC50 at 48 h).

With `Cn1c(C(=O)N2CC(F)(F)C2)cc2c1CN(c1ncc(C#N)c(Nc3ccc(-c4cn[nH]c4)cc3)n1)CC2` [Compound L034, 4-((4-(1H-pyrazol-4-yl)phenyl)amino)-2-(2-(3,3-difluoroazetidin-1-carbonyl)-1-methyl-4,5-dihydro-1H-pyrrolo[2,3-c]pyridin-6(7H)-yl)pyrimidine-5-carbonitrile], the IC50 against ROCK2 kinase was ≤ 0.05 µM; against ROCK1 kinase, > 4.5 µM.

`Cn1c(C(=O)N2CC(F)(F)C2)cc2c1CN(c1ncc(C(F)(F)F)c(Nc3ccc(-c4cn[nH]c4)cc3)n1)CC2` [Compound L035, (6-(4-((4-(1H-pyrazol-4-yl)phenyl)amino)-5-(trifluoromethyl)pyrimidin-2-yl)-1-methyl-4,5,6,7-tetrahydro-1H-pyrrolo[2,3-c]pyridin-2-yl)(3,3-difluoroazetidin-1-yl)methanone]: the results for the IC50 on ROCK2 kinase and at ROCK1 kinase were 0.05 to 0.5 µM and > 4.5 µM, respectively.

With `Cn1c(C(=O)N2CC(F)(F)C2)cc2c1CN(c1ncc(Cl)c(Nc3ccc(-c4c[nH]nc4F)cc3)n1)CC2` [Compound L038, (6-(5-chloro-4-((4-(3-fluoro-1H-pyrazol-4-yl)phenyl)amino)pyrimidin-2-yl)-1-methyl-4,5,6,7-tetrahydro-1H-pyrrolo[2,3-c]pyridin-2-yl)(3,3-difluoroazetidin-1-yl)methanone], the results for the IC50 against ROCK2 kinase and on ROCK1 kinase were 0.05 to 0.5 µM and > 4.5 µM, respectively.

Turning to `Cn1c(C(=O)N2CC(C(F)F)C2)cc2c1CN(c1ncc(F)c(Nc3ccc(-c4c[nH]nc4F)cc3)n1)CC2` [Compound L039, (3-(difluoromethyl)azetidin-1-yl)(6-(5-fluoro-4-((4-(3-fluoro-1H-pyrazol-4-yl)phenyl)amino)pyrimidin-2-yl)-1-methyl-4,5,6,7-tetrahydro-1H-pyrrolo[2,3-c]pyridin-2-yl)methanone], the values for the half-maximal inhibitory concentration (IC50) at ROCK2 kinase and against ROCK1 kinase were 0.05 to 0.5 µM and > 4.5 µM, respectively.

`Cn1c(C(=O)N2CC(F)(F)C2)cc2c1CN(c1nc(Nc3ccc(-c4cn[nH]c4)cc3)cc(C(F)(F)F)n1)CC2` [Compound L041, (6-(4-((4-(1H-pyrazol-4-yl)phenyl)amino)-6-(trifluoromethyl)pyrimidin-2-yl)-1-methyl-4,5,6,7-tetrahydro-1H-pyrrolo[2,3-c]pyridin-2-yl)(3,3-difluoroazetidin-1-yl)methanone]: the IC50 at ROCK2 kinase is 0.05 to 0.5 µM; against ROCK1 kinase, > 4.5 µM.

As for `O=C(c1cc2c(n1C(F)F)CN(c1ncnc(Nc3ccc(-c4cn[nH]c4)cc3)n1)CC2)N1CC(F)(F)C1` [Compound L045, (6-(4-((4-(1H-pyrazol-4-yl)phenyl)amino)-1,3,5-triazin-2-yl)-1-(difluoromethyl)-4,5,6,7-tetrahydro-1H-pyrrolo[2,3-c]pyridin-2-yl)(3,3-difluoroazetidin-1-yl)methanone], the half-maximal inhibitory concentration (IC50) against ROCK2 kinase and against ROCK1 kinase was > 4.5 µM each time. Also, the CC50 (usually the concentration at which the toxic effect on the cells reaches its halfway point) at 48 h in data set [1] was > 100 µM.

For `Cn1c(C(=O)N2CC(F)(F)C2)cc2c1CN(c1nnc(Nc3ccc(-c4cn[nH]c4)cc3)o1)CC2` [Compound L046, (6-(5-((4-(1H-pyrazol-4-yl)phenyl)amino)-1,3,4-oxadiazol-2-yl)-1-methyl-4,5,6,7-tetrahydro-1H-pyrrolo[2,3-c]pyridin-2-yl)(3,3-difluoroazetidin-1-yl)methanone], the IC50 against ROCK2 kinase and at ROCK1 kinase was > 4.5 µM throughout.

In the case of `O=C(c1cc2c(n1C(F)F)CN(c1ncc(F)c(Nc3ccc(-c4cn[nH]c4)cc3)n1)CC2)N1CC(F)(F)C1` [Compound L047, (6-(4-((4-(1H-pyrazol-4-yl)phenyl)amino)-5-fluoropyrimidin-2-yl)-1-(difluoromethyl)-4,5,6,7-tetrahydro-1H-pyrrolo[2,3-c]pyridin-2-yl)(3,3-difluoroazetidin-1-yl)methanone], the IC50 against ROCK2 kinase and on ROCK1 kinase was > 4.5 µM each time. The CC50 at 48 h in data set [1] is > 100 µM.

In the case of `CCc1nc(Nc2ccc(-c3cn[nH]c3)cc2)nc(N2CCc3cc(C(=O)N4CC(F)(F)C4)n(C)c3C2)n1` [Compound L048, (6-(4-((4-(1H-pyrazol-4-yl)phenyl)amino)-6-ethyl-1,3,5-triazin-2-yl)-1-methyl-4,5,6,7-tetrahydro-1H-pyrrolo[2,3-c]pyridin-2-yl)(3,3-difluoroazetidin-1-yl)methanone], the IC50 against ROCK2 kinase was 0.5 to 4.5 µM; on ROCK1 kinase, > 4.5 µM. The same compound came in with a CC50 at 48 h in data set [1] of 100 µM.

Take `CC(C)c1nc(Nc2ccc(-c3cn[nH]c3)cc2)nc(N2CCc3cc(C(=O)N4CC(F)(F)C4)n(C)c3C2)n1` [Compound L049]: the results for the IC50 against ROCK2 kinase and on ROCK1 kinase were 0.05 to 0.5 µM and > 4.5 µM, respectively.

Consider `Cn1c(C(=O)N2CC(F)(F)C2)cc2c1CN(c1nc(Nc3ccc(-c4cn[nH]c4)cc3)nc(C3COC3)n1)CC2` [Compound L052, (6-(4-((4-(1H-pyrazol-4-yl)phenyl)amino)-6-(oxetan-3-yl)-1,3,5-triazin-2-yl)-1-methyl-4,5,6,7-tetrahydro-1H-pyrrolo[2,3-c]pyridin-2-yl)(3,3-difluoroazetidin-1-yl)methanone], for which the figures for the IC50 against ROCK2 kinase and at ROCK1 kinase were 0.05 to 0.5 µM and > 4.5 µM, respectively.

Regarding `Cn1c(C(=O)N2CC(F)(F)C2)cc2c1CN(c1nc3c(c(Nc4ccc(-c5cn[nH]c5)cc4)n1)CCC3)CC2` [Compound L053, (6-(4-((4-(1H-pyrazol-4-yl)phenyl)amino)-6,7-dihydro-5H-cyclopenta[d]pyrimidin-2-yl)-1-methyl-4,5,6,7-tetrahydro-1H-pyrrolo[2,3-c]pyridin-2-yl)(3,3-difluoroazetidin-1-yl)methanone], the IC50 is 0.05 to 0.5 µM at ROCK2 kinase and > 4.5 µM at ROCK1 kinase.

Regarding `O=C(c1ccc2c(cnn2-c2nccc(Nc3ccc(-c4cn[nH]c4)cc3)n2)c1)N1CC(F)(F)C1` [Compound L055], the IC50 is 0.5 to 4.5 µM against ROCK2 kinase and > 4.5 µM on ROCK1 kinase.

Consider `CC(C)NC(=O)COc1cccc(-c2nc(Nc3ccc4[nH]ncc4c3)c3ccccc3n2)c1` [KD-025, reference compound], for which the half-life in data set [2] was determined as 1.52 h; in data set [3], 1.61 h; in data set [4], 0.287 h.

The values are drawn from patent publication US20230257376A1, “ROCK INHIBITOR, AND PREPARATION METHOD THEREFOR AND USE THEREOF” (WUHAN LL SCIENCE AND TECHNOLOGY DEVELOPMENT CO., LTD., priority 2020, published 2023).
